Assay results: patent US20110144079A1, “ANTIMICROBIAL SYSTEM” (priority 2008, published 2011)
Where two headings read alike, the source gives them in different places. Marks after values point to notes of the source that are not given here.

Columns and labels:
MRSA [1] = assay: Broth microdilution MIC/MBC; assay type: cell-based, methicillin-resistant S. aureus; settings: Staphylococcus aureus; for MBC: 99.9% killing; for MIC: 24 h at 37° C.
Procedure, shortened: (§1)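 Imidazolium salts two-fold diluted in Mueller-Hinton broth over 0.0000625-1% w/v, inoculum 2×10^5 CFU/ml, aerobic 24 h at 37° C., per NCCLS. MBC: 20 μl from no-growth wells plated on MHA, 24 h, scored for 99.9% killing.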

[2] = test system: Staphylococcus Epidermidis; assay: Kill kinetics, planktonic cell cultures; assay type: cell-based
Description: (§2) The kill kinetic data is provided in terms of the measured colony forming units per millilitre (CFU/mL) values, and is also provided graphically in FIGS. 9-11.

Escherichia Coli = assay: Kill kinetics, planktonic cell cultures; assay type: cell-based
Description: as §2

[3] = test system: Methicillin Resistant Staphylococcus Aureus (MRSA); assay: Kill kinetics, planktonic cell cultures; assay type: cell-based
Description: as §2

MRSA [4] = assay: Zone of inhibition on MRSA-seeded agar culture plates; assay type: cell-based, methicillin-resistant S. aureus; settings: 40 μL of ionic liquid applied to MRSA-seeded agar culture plates
Description: As used herein, CyMIMCI, refers to 1-alkyl-3-methyl-imidazolium chloride ionic liquids, wherein the alkyl group is a straight chain alkyl group having y carbon atoms.

[5] = test system: S. epidermidis ATCC 35984; assay: Broth microdilution MIC/MBC; assay type: cell-based; settings: for MIC: S. epidermidis ATCC 35984, 24 h at 37° C.; for MBC: ATCC35984, S. epidermidis ATCC 35984, 99.9% killing
Procedure, shortened: as §1

[6] = test system: S. epidermidis ATCC 12228; assay: Broth microdilution MIC/MBC; assay type: cell-based; settings: Staphylococcus epidermidis, ATCC12228; for MBC: S. epidermidis ATCC 12228, 99.9% killing; for MIC: S. epidermidis ATCC 12228, 24 h at 37° C.
Procedure, shortened: as §1

P. mirabilis NCTC 12442 = assay: Broth microdilution MIC/MBC; assay type: cell-based; settings: Proteus mirabilis, NCTC12442; for MBC: P. mirabilis NCTC 12442, 99.9% killing; for MIC: P. mirabilis NCTC 12442, 24 h at 37° C.
Procedure, shortened: as §1

C. tropicalis NCTC 7393 = assay: Broth microdilution MIC/MBC; assay type: cell-based; settings: Candida tropicalis, NCTC7393; for MBC: C. tropicalis NCTC 7393, 99.9% killing; for MIC: C. tropicalis NCTC 7393, 24 h at 37° C.
Procedure, shortened: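 Cultures grown overnight in MHB were standardised by OD550 to 1×10^8 CFU/ml, then diluted to a final 2×10^5 CFU/ml. This inoculum was added to imidazolium salt dilutions spanning 0.0000625–1% w/v in MHB and incubated aerobically for 24 h at 37 °C. Wells without growth were plated on MHA for 24 h to find the MBC.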

E. coli NCTC 8196 = assay: Broth microdilution MIC/MBC; assay type: cell-based; settings: Escherichia coli, NCTC8196; for MBC: E. coli NCTC 8196, 99.9% killing; for MIC: E. coli NCTC 8196, 24 h at 37° C.
Procedure, shortened: as §1

E-MRSA 15 = assay: Broth microdilution MIC/MBC; assay type: cell-based; settings: for MBC: E-MRSA 15, 99.9% killing; for MIC: E-MRSA 15, 24 h at 37° C.
Procedure, shortened: as §1

K. aerogenes NCTC 7427 = assay: Broth microdilution MIC/MBC; assay type: cell-based; settings: Klebsiella aerogenes, NCTC7427; for MBC: K. aerogenes NCTC 7427, 99.9% killing; for MIC: K. aerogenes NCTC 7427, 24 h at 37° C.
Procedure, shortened: as §1

B. cenocepacia J2315 = assay: Broth microdilution MIC/MBC; assay type: cell-based; settings: Burkholderia cenocepacia; for MBC: B. cenocepacia J2315, 99.9% killing; for MIC: B. cenocepacia J2315, 24 h at 37° C.
Procedure, shortened: as §1

P. aeruginosa PA01 = assay: Broth microdilution MIC/MBC; assay type: cell-based; settings: for MIC: P. aeruginosa PA01, 24 h at 37° C.; for MBC: P. aeruginosa PA01, 99.9% killing
Procedure, shortened: as §1

S. aureus ATCC 29213 = assay: Broth microdilution MIC/MBC; assay type: cell-based; settings: Staphylococcus aureus, ATCC29213; for MBC: S. aureus ATCC 29213, 99.9% killing; for MIC: S. aureus ATCC 29213, 24 h at 37° C.
Procedure, shortened: as §1

E. coli PIII = assay: Broth microdilution MIC; assay type: cell-based; settings: Escherichia coli
Procedure, shortened: as §1

[7] = Staphylococcus epidermidis, ATCC35984, 24 h
[8] = Pseudomonas aeruginosa, PA01, 24 h, read-out: MIC

`CCCCCCCCCCCCCCn1cc[n+](C)c1.[Cl-]` [C14MIMCl, 1-tetradecyl-3-methylimidazolium chloride] was tested, and the MBC (MRSA [1]) was 66 µM, the MIC (MRSA [1]) was 16 µM and the “colony forming units per millilitre” value ([2]; 40 μM, 0 Minutes) was 8.67 × 10^7 CFU/mL. For the same compound, the “colony forming units per millilitre” value ([2]; 40 μM, 5 Minutes) was 0.00 CFU/mL, the “colony forming units per millilitre” value ([2]; 40 μM, 10 Minutes) was 0.00 CFU/mL and the “colony forming units per millilitre” value ([2]; 40 μM, 20 Minutes) was 0.00 CFU/mL. For the same compound, the “colony forming units per millilitre” value ([2]; 40 μM, 30 Minutes) was 0.00 CFU/mL, the “colony forming units per millilitre” value ([2]; 40 μM, 45 Minutes) was 0.00 CFU/mL and the “colony forming units per millilitre” value (Escherichia Coli; 265 μM, 0 Minutes) was 1.67 × 10^8 CFU/mL. The “colony forming units per millilitre” value (Escherichia Coli; 265 μM, 5 Minutes) was 1.07 × 10^4 CFU/mL, the “colony forming units per millilitre” value (Escherichia Coli; 265 μM, 10 Minutes) was 2.33 × 10^3 CFU/mL and the “colony forming units per millilitre” value (Escherichia Coli; 265 μM, 20 Minutes) was 0.00 CFU/mL. For the same compound, the “colony forming units per millilitre” value (Escherichia Coli; 265 μM, 30 Minutes) was 0.00 CFU/mL, the “colony forming units per millilitre” value (Escherichia Coli; 265 μM, 45 Minutes) was 0.00 CFU/mL and the “colony forming units per millilitre” value ([3]; 40 μM, 0 Minutes) was 1.52 × 10^8 CFU/mL. For the same compound, the “colony forming units per millilitre” value ([3]; 40 μM, 5 Minutes) was 1.78 × 10^5 CFU/mL, the “colony forming units per millilitre” value ([3]; 40 μM, 10 Minutes) was 2.75 × 10^3 CFU/mL and the “colony forming units per millilitre” value ([3]; 40 μM, 20 Minutes) was 3.33 × 10^2 CFU/mL. For the same compound, the “colony forming units per millilitre” value ([3]; 40 μM, 30 Minutes) was 0.00 CFU/mL, the “colony forming units per millilitre” value ([3]; 40 μM, 45 Minutes) was 0.00 CFU/mL and the “Zone Of Inhibition Radius” value (MRSA [4]) was 10 mm. For the same compound, the MIC ([5]; listed as 1-alkyl-3-methylimidazolium chlorides 14) was 7.75 µM, the MIC [5, 7] was 7.7 µM and the MBC ([5]; Staphylococcus epidermidis) was 33 µM. It also gave an MBC [6] of 33 µM, an MIC [6] of 7.7 µM and an MBC (P. mirabilis NCTC 12442) of 530 µM. For the same compound, the MIC (P. mirabilis NCTC 12442) was 264 µM, the MBC (C. tropicalis NCTC 7393) was 132 µM and the MIC (C. tropicalis NCTC 7393) was 66 µM. For the same compound, the MBC (E. coli NCTC 8196) was 33 µM, the MIC (E. coli NCTC 8196) was 33 µM and the MBC (E-MRSA 15) was 66 µM. For the same compound, the MIC (E-MRSA 15) was 16 µM, the MBC (K. aerogenes NCTC 7427) was 66 µM and the MIC (K. aerogenes NCTC 7427) was 33 µM. It also gave an MBC (B. cenocepacia J2315) of 264 µM, an MIC (B. cenocepacia J2315) of 132 µM and an MIC (P. aeruginosa PA01; [8]) of 264 µM. For the same compound, the MBC (P. aeruginosa PA01; Pseudomonas aeruginosa) was 264 µM, the MBC (S. aureus ATCC 29213) was 66 µM and the MIC (S. aureus ATCC 29213) was 16 µM. The MIC (E. coli PIII) was 33 µM.

`CCCCCCCCCCn1cc[n+](C)c1.[Cl-]` [C10MIMCl, 1-decyl-3-methylimidazolium chloride] was tested, and the MBC (MRSA [1]) was 643 µM, the MIC (MRSA [1]) was 160 µM and the “colony forming units per millilitre” value ([2]; 644 μM, 0 Minutes) was 8.96 × 10^7 CFU/mL. The “colony forming units per millilitre” value ([2]; 644 μM, 5 Minutes) was 8.58 × 10^5 CFU/mL, the “colony forming units per millilitre” value ([2]; 644 μM, 10 Minutes) was 6.92 × 10^4 CFU/mL and the “colony forming units per millilitre” value ([2]; 644 μM, 20 Minutes) was 1.06 × 10^4 CFU/mL. The “colony forming units per millilitre” value ([2]; 644 μM, 30 Minutes) was 2.42 × 10^3 CFU/mL, the “colony forming units per millilitre” value ([2]; 644 μM, 45 Minutes) was 9.17 × 10^2 CFU/mL and the “colony forming units per millilitre” value (Escherichia Coli; 2000 μM, 0 Minutes) was 6.25 × 10^7 CFU/mL. The “colony forming units per millilitre” value (Escherichia Coli; 2000 μM, 5 Minutes) was 3.33 × 10^2 CFU/mL, the “colony forming units per millilitre” value (Escherichia Coli; 2000 μM, 10 Minutes) was 0.00 CFU/mL and the “colony forming units per millilitre” value (Escherichia Coli; 2000 μM, 20 Minutes) was 0.00 CFU/mL. For the same compound, the “colony forming units per millilitre” value (Escherichia Coli; 2000 μM, 30 Minutes) was 0.00 CFU/mL, the “colony forming units per millilitre” value (Escherichia Coli; 2000 μM, 45 Minutes) was 0.00 CFU/mL and the “colony forming units per millilitre” value ([3]; 1379 μM, 0 Minutes) was 1.10 × 10^8 CFU/mL. For the same compound, the “colony forming units per millilitre” value ([3]; 1379 μM, 5 Minutes) was 3.67 × 10^7 CFU/mL, the “colony forming units per millilitre” value ([3]; 1379 μM, 10 Minutes) was 5.00 × 10^6 CFU/mL and the “colony forming units per millilitre” value ([3]; 1379 μM, 20 Minutes) was 5.75 × 10^4 CFU/mL. The “colony forming units per millilitre” value ([3]; 1379 μM, 30 Minutes) was 6.67 × 10^2 CFU/mL, the “colony forming units per millilitre” value ([3]; 1379 μM, 45 Minutes) was 8.33 × 10^1 CFU/mL and the “Zone Of Inhibition Radius” value (MRSA [4]) was 17 mm. For the same compound, the MIC [5, 7] was 40 µM, the MBC ([5]; Staphylococcus epidermidis) was 160 µM and the MBC [6] was 644 µM. The MIC [6] was 40 µM, the MBC (P. mirabilis NCTC 12442) was 1290 µM and the MIC (P. mirabilis NCTC 12442) was 1290 µM. The MBC (C. tropicalis NCTC 7393) was 321 µM, the MIC (C. tropicalis NCTC 7393) was 321 µM and the MBC (E. coli NCTC 8196) was 1290 µM. For the same compound, the MIC (E. coli NCTC 8196) was 321 µM, the MBC (E-MRSA 15) was 321 µM and the MIC (E-MRSA 15) was 40 µM. For the same compound, the MBC (K. aerogenes NCTC 7427) was 1290 µM, the MIC (K. aerogenes NCTC 7427) was 643 µM and the MBC (B. cenocepacia J2315) was 1290 µM. For the same compound, the MIC (B. cenocepacia J2315) was 1290 µM, the MIC (P. aeruginosa PA01; listed as 1-alkyl-3-methylimidazolium chlorides 10) was 2415* μM and the MIC (P. aeruginosa PA01; [8]) was greater than 1290 µM. It also gave an MBC (P. aeruginosa PA01; Pseudomonas aeruginosa) greater than 1290 µM, an MBC (S. aureus ATCC 29213) of 643 µM and an MIC (S. aureus ATCC 29213) of 40 µM. It also gave an MIC (E. coli PIII) of 321 µM.
